{
  "source": "patent US12673039B2",
  "about": "“Methods of inducing autophagy using coumarin derivatives and related compounds” (Buck Institute for Research on Aging, priority 2019, dated 2026)",
  "key": {"C. elegans": {"system": "C. elegans", "test": "Autophagic flux and lysosomal reporters in C. elegans", "assay_type": "in vivo", "procedure": "FIGS. 12A-12B illustrate that coumarin 106 (“C1”, “AIC106”) promotes induction of autophagic markers. FIG. 12A) Increased APG:APL fusion as assessed by green to red fluorescence shift following addition of 20 μM C1 versus DMSO-only control to ttdLGG-1:GFP worms expressing a pH sensitive GFP. FIG. 12B) Increases in autophagic flux as assessed by increased GFP fluorescence within p62::GFP and plmp-1::GFP expressing worms following addition of 20 μM C1 versus DMSO-only controls.\nFIG. 19, panels A-G: AIC106 increases autophagic flux and lysosomal function in C. elegans. Panel A) Relative fold change in mRNA of autophagosome-specific protein p62/Sqstm-1 compared to DMSO-control was quantified using qRT-PCR in young adult wild-type N2 worms post-24 hours treatment with AIC106. [N=3 independent experiments (mean±SD). *p<0.05 and **p<0.01, by one-way ANOVA with Sidak's multiple comparisons test]. Panel B) Changes in p62/SQSTM-1 expression were measured by quantifying GFP intensity in an individual GFP-tagged p62/SQSTM-1 worm (HZ589) post-24 hours treatment with AIC106 and DMSO-control, followed by RNAi treatment. [N=3 independent experiments (mean±SD). ****p<0.0001, by one-way ANOVA with Tukey's multiple comparisons test]. Panel C) p62/SQSTM-1; GFP (HZ589) was monitored by fluorescence microscopy. Panel D) Changes in lysosomal number were measured by quantifying GFP intensity in an individual GFP-tagged LMP-1 worm (RT258) post-24 hours treatment with AIC106 and DMSO-control. [N=3 independent experiments (mean±SD). ****p<0.0001, by unpaired t-test]. Panel E) RT258 worms were monitored by fluorescence microscopy. Panel F) Changes in lysosomal number were measured by quantifying fluorescence intensity in an individual Lysotracker Red stained wild type N2 worms post-24 hours treatment with AIC106 and DMSO-control. [N=3 independent experiments (mean±SD). ****p<0.0001, by unpaired t-test]. Panel G) Lysotracker Red stained wild type N2 worms were monitored by fluorescence microscopy.\nFIG. 26, panels A-B: AIC106 enhances autophagy flux in C. elegans. Panel A) Monitoring of tandem reporter lgg-1p::mCherry::GFP::lgg-1 expressing worms was performed by fluorescence microscopy. Panel B) Effects of AIC106 treatment on GFP and mCherry by time were measured by fluorescence microscopy after AIC106 or DMSO-control treatment for 24 h. [N=3 independent experiments (mean±SD). *p<0.05 and **p<0.01, by unpaired t-test].\nSynchronized populations of day-1 adult worms expressing reporter GFP transgene or stained with a dye/stain (Lysotracker and TMRM) and grown at 20° C. were transferred to compound or DMSO plates. Fluorescence expression was analyzed at the time specified for each individual strain (see figure legends). Worms were paralyzed in 2 mM levamisole, mounted on 2% agarose pads with glass cover slips, and imaged immediately with an Axio Zeiss microscope. Appropriate filters were used to visualize GFP, Lysotracker red and TMRM were visualized under rhodamine filter. Approximately 20-40 worms per treatment were used. Fluorescence intensity normalized to worm area was measured using NIH ImageJ software. Transgenic reporters used in the study are HZ589 him-5(e1490) V; bpIs151[sqst-1p::sqst-1::GFP+unc-76(+)], RT258 unc-119(ed3) III; pwIs50 [lmp-1::GFP+Cbr-unc-119(+)], UA44 UA44(baIn11[Pdat-1::α-syn, Pdat-1::GFP]), AM141 rmIs133 [unc-54p::Q40::YFP]LAMP-1:GFP.\nSynchronized day-1 adult N2 worms were transferred to DMSO control or compound treated plates for 24 hours at 20° C. On day-2, worms were transferred to 35 mm OP50 seeded assay plates treated with compound or DMSO plates overlaid with 1 μM LysoTracker™ Red DND-99 (Molecular Probes) for 24 hours at 20° C. Post-24 hours on LysoTracker stain, worms were picked and washed in a fresh drop of 1×M9 medium to remove excess stain and mounted on 2% agarose pad slides for microscopic visualization. Worm images were taken in a Zeiss Imager Z1 fluorescence microscope using rhodamine filters. […]"}, "AM141 worm": {"system": "AM141 worm", "test": "polyQ40 aggregation in AM141 worms", "assay_type": "in vivo, C. elegans", "conditions": "dose dependent", "text": "FIG. 21, panels A-F: AIC106 prevents neuronal loss and proteotoxicity in strains expressing human neurotoxic proteins. Panel A) Dopaminergic neuronal loss in day-5 UA44 worms was quantified by scoring percentage of worms with intact 4-CEP neurons in AIC106 and DMSO-control treatment. [N=3 independent experiments (mean±SD). ***p<0.001, by one-way ANOVA with Tukey's multiple comparisons test]. Motor function in (panel B) day-7 NL5901 and (panel C) day-5 CL2006 worms were quantified by scoring number of thrashes for an individual worm over the period of 30 seconds (dots) in AIC106 and DMSO-control treatment. […] Panel D) Motor function in temperature sensitive (enhanced paralysis at 25° C.) CL4176 worms was determined by scoring percent of worms paralyzed in AIC106 and DMSO-control treatment. […] P-value calculated by Logrank test]. Panel F) Effect of AIC106 on polyQ40 aggregation was determined by scoring number of polyQ40-YFP fluorescent puncta in an individual AM141 worm treated with AIC106 and DMSO-control. […]\nSynchronized populations of day-1 adult worms expressing reporter GFP transgene or stained with a dye/stain (Lysotracker and TMRM) and grown at 20° C. were transferred to compound or DMSO plates. Fluorescence expression was analyzed at the time specified for each individual strain (see figure legends). […] Fluorescence intensity normalized to worm area was measured using NIH ImageJ software. […]"}},
  "data": [
    {"smiles": "O=c1oc2c3c4c(cc2c2c1CCC2)CCCN4CCC3", "note": "[C1, 2,3,6,7,10,11-Hexahydro-1H,5H-cyclopenta(3,4)(1)benzopyrano(6,7,8-ij)quinolizin-12(9H)-one]", "values": [
      {"measurement": "autophagic flux", "setting": "C. elegans; 20 μM C1 (FIG. 12)", "value": "increased autophagic flux"},
      {"measurement": "tandem mCherry-GFP-LGG-1 reporter (autophagosomal:lysosomal fusion)", "setting": "C. elegans; 24 h (FIG. 26)", "value": "decreased GFP intensity in conjunction with significant increase in mCherry-only intensity"},
      {"measurement": "p62/SQSTM-1 protein levels (GFP)", "setting": "C. elegans; HZ589 worms, 24 hours", "value": "enhanced p62/SQSTM-1 protein levels"},
      {"measurement": "lysosomal biogenesis by LysoTracker red staining", "setting": "C. elegans; N2 worms", "value": "validated via LysoTracker red staining"},
      {"measurement": "p62/Sqstm-1 mRNA", "setting": "C. elegans; N2 worms, 24 hours", "value": "increased mRNA levels of p62/Sqstm-1"},
      {"measurement": "lysosomal biogenesis (GFP-tagged LAMP-1/LMP-1)", "setting": "C. elegans; RT258 worms, 24 hours", "value": "increase in lysosomal biogenesis"},
      {"measurement": "poly-Q40 aggregates", "setting": "AM141 worm", "value": "significantly decreased poly-Q40 aggregates"}
    ]}
  ]
}
